Where two headings read alike, the source gives them in different places.
What was measured:
Assay in all cases: biochemical
Format in all cases: biochemical
panel of 391 kinases [1] = biological target: panel of 391 kinases (Homo sapiens, UniProt O75385); conditions: ULK1, MK-28 1 µM, ATP 1 µM
panel of 391 kinases [2] = biological target: panel of 391 kinases (Homo sapiens, UniProt O75676); conditions: MSK2/RPS6KA4, MK-28 1 µM, ATP 1 µM
panel of 391 kinases [3] = biological target: panel of 391 kinases (Homo sapiens, UniProt O75914); conditions: PAK3, MK-28 1 µM, ATP 1 µM
panel of 391 kinases [4] = biological target: panel of 391 kinases (Homo sapiens, UniProt P23458); conditions: JAK1, MK-28 1 µM, ATP 1 µM
panel of 391 kinases [5] = biological target: panel of 391 kinases (Homo sapiens, UniProt P24723); conditions: PKCeta, MK-28 1 µM, ATP 1 µM
panel of 391 kinases [6] = biological target: panel of 391 kinases (Homo sapiens, UniProt P25098); conditions: GRK2, MK-28 1 µM, ATP 1 µM
panel of 391 kinases [7] = biological target: panel of 391 kinases (Homo sapiens, UniProt P28482); conditions: ERK2/MAPK1, MK-28 1 µM, ATP 1 µM
panel of 391 kinases [8] = biological target: panel of 391 kinases (Homo sapiens, UniProt P29317); conditions: EPHA2, MK-28 1 µM, ATP 1 µM
panel of 391 kinases [9] = biological target: panel of 391 kinases (Homo sapiens, UniProt P32298); conditions: GRK4, MK-28 1 µM, ATP 1 µM
panel of 391 kinases [10] = biological target: panel of 391 kinases (Homo sapiens, UniProt P36896); conditions: ALK4/ACVR1B, MK-28 1 µM, ATP 1 µM
panel of 391 kinases [11] = biological target: panel of 391 kinases (Homo sapiens, UniProt P41279); conditions: COT1/MAP3K8, MK-28 1 µM, ATP 1 µM
panel of 391 kinases [12] = biological target: panel of 391 kinases (Homo sapiens, UniProt P51812); conditions: RSK2, MK-28 1 µM, ATP 1 µM
panel of 391 kinases [13] = biological target: panel of 391 kinases (Homo sapiens, UniProt P54646); conditions: compound at 1 µM, single dose in duplicates, 1 µM ATP; for remaining activity at 1 µM: read-out: % Enzyme Activity (relative to DMSO controls)
panel of 391 kinases [14] = biological target: panel of 391 kinases (Homo sapiens, UniProt P78527); conditions: kinase DNA-PK, compound at 1 µM, single dose in duplicates, 1 µM ATP
panel of 391 kinases [15] = biological target: panel of 391 kinases (Homo sapiens, UniProt Q13464); conditions: ROCK1, MK-28 1 µM, ATP 1 µM
panel of 391 kinases [16] = biological target: panel of 391 kinases (Homo sapiens, UniProt Q6PHR2); conditions: ULK3, MK-28 1 µM, ATP 1 µM
panel of 391 kinases [17] = biological target: panel of 391 kinases (Homo sapiens, UniProt Q86YV6); conditions: MYLK4, MK-28 1 µM, ATP 1 µM
panel of 391 kinases [18] = biological target: panel of 391 kinases (Homo sapiens, UniProt Q86Z02); conditions: HIPK1, MK-28 1 µM, ATP 1 µM
panel of 391 kinases [19] = biological target: panel of 391 kinases (Homo sapiens, UniProt Q96PN8); conditions: TSSK3/STK22C, MK-28 1 µM, ATP 1 µM
panel of 391 kinases [20] = biological target: panel of 391 kinases (Homo sapiens, UniProt Q9H4A3); conditions: WNK1, MK-28 1 µM, ATP 1 µM
panel of 391 kinases [21] = biological target: panel of 391 kinases (Homo sapiens, UniProt Q9P0L2); conditions: MARK1, MK-28 1 µM, ATP 1 µM
panel of 391 kinases [22] = biological target: panel of 391 kinases (Homo sapiens, UniProt Q9UBS0); conditions: p70S6Kb/RPS6KB2, MK-28 1 µM, ATP 1 µM
panel of 391 kinases [23] = biological target: panel of 391 kinases (Homo sapiens, UniProt Q9UIK4); conditions: DAPK2, MK-28 1 µM, ATP 1 µM
panel of 391 kinases [24] = biological target: panel of 391 kinases (Homo sapiens, UniProt Q9UKI8); conditions: TLK1, MK-28 1 µM, ATP 1 µM
panel of 391 kinases [25] = biological target: panel of 391 kinases (Homo sapiens, UniProt Q9Y572); conditions: RIPK3, MK-28 1 µM, ATP 1 µM
[26] = read-out: % Enzyme Activity (relative to DMSO controls)

SMILES: CN(/N=C\c1ccc(O)c(O)c1)c1nc(-c2ccccc2)cc(-c2ccccc2)n1 [MK-28]
- % Enzyme Activity (relative to DMSO controls) (panel of 391 kinases [1]): 97.64%
- remaining activity at 1 µM (panel of 391 kinases [1]; [26]): 100%
- % Enzyme Activity (relative to DMSO controls) (panel of 391 kinases [2]): 94.82%
- remaining activity at 1 µM (panel of 391 kinases [2]; [26]): 96.8%
- % Enzyme Activity (relative to DMSO controls) (panel of 391 kinases [3]): 116.60%
- remaining activity at 1 µM (panel of 391 kinases [3]; [26]): 117%
- % Enzyme Activity (relative to DMSO controls) (panel of 391 kinases [4]): 100.53%
- remaining activity at 1 µM (panel of 391 kinases [4]; [26]): 101%
- % Enzyme Activity (relative to DMSO controls) (panel of 391 kinases [5]): 98.39%
- remaining activity at 1 µM (panel of 391 kinases [5]; [26]): 101%
- % Enzyme Activity (relative to DMSO controls) (panel of 391 kinases [6]): 99.37%
- remaining activity at 1 µM (panel of 391 kinases [6]; [26]): 99.8%
- % Enzyme Activity (relative to DMSO controls) (panel of 391 kinases [7]): 105.81%
- remaining activity at 1 µM (panel of 391 kinases [7]; [26]): 107%
- % Enzyme Activity (relative to DMSO controls) (panel of 391 kinases [8]): 99.61%
- remaining activity at 1 µM (panel of 391 kinases [8]; [26]): 100%
- % Enzyme Activity (relative to DMSO controls) (panel of 391 kinases [9]): 97.72%
- remaining activity at 1 µM (panel of 391 kinases [9]; [26]): 99.2%
- % Enzyme Activity (relative to DMSO controls) (panel of 391 kinases [10]): 89.88%
- remaining activity at 1 µM (panel of 391 kinases [10]; [26]): 92.3%
- % Enzyme Activity (relative to DMSO controls) (panel of 391 kinases [11]): 95.23%
- remaining activity at 1 µM (panel of 391 kinases [11]; [26]): 96%
- % Enzyme Activity (relative to DMSO controls) (panel of 391 kinases [12]): 95.23%
- remaining activity at 1 µM (panel of 391 kinases [12]; [26]): 99.7%
- % Enzyme Activity (relative to DMSO controls) (panel of 391 kinases [13]; kinase AMPK(A2/B1/G1)): 91.41%
- remaining activity at 1 µM (panel of 391 kinases [13]; kinase AMPK(A2/B1/G1)): 93%
- % Enzyme Activity (relative to DMSO controls) (panel of 391 kinases [13]; kinase AMPK(A2/B2/G1)): 106.33%
- remaining activity at 1 µM (panel of 391 kinases [13]; kinase AMPK(A2/B2/G1)): 108%
- % Enzyme Activity (relative to DMSO controls) (panel of 391 kinases [13]; kinase AMPK(A2/B2/G2)): 103.36%
- remaining activity at 1 µM (panel of 391 kinases [13]; kinase AMPK(A2/B2/G2)): 104%
- % Enzyme Activity (relative to DMSO controls) (panel of 391 kinases [13]; kinase AMPK(A2/B2/G3)): 96.60%
- remaining activity at 1 µM (panel of 391 kinases [13]; kinase AMPK(A2/B2/G3)): 98.9%
- % Enzyme Activity (relative to DMSO controls) (panel of 391 kinases [14]): 102.10%
- remaining activity at 1 µM (panel of 391 kinases [14]; [26]): 103%
- % Enzyme Activity (relative to DMSO controls) (panel of 391 kinases [15]): 94.86%
- remaining activity at 1 µM (panel of 391 kinases [15]; [26]): 99.6%
- % Enzyme Activity (relative to DMSO controls) (panel of 391 kinases [16]): 97.75%
- remaining activity at 1 µM (panel of 391 kinases [16]; [26]): 98.7%
- % Enzyme Activity (relative to DMSO controls) (panel of 391 kinases [17]): 92.82%
- remaining activity at 1 µM (panel of 391 kinases [17]; [26]): 97.6%
- % Enzyme Activity (relative to DMSO controls) (panel of 391 kinases [18]): 100.46%
- remaining activity at 1 µM (panel of 391 kinases [18]; [26]): 101%
- % Enzyme Activity (relative to DMSO controls) (panel of 391 kinases [19]): 86.26%
- remaining activity at 1 µM (panel of 391 kinases [19]; [26]): 88%
- % Enzyme Activity (relative to DMSO controls) (panel of 391 kinases [20]): 103.91%
- remaining activity at 1 µM (panel of 391 kinases [20]; [26]): 104%
- % Enzyme Activity (relative to DMSO controls) (panel of 391 kinases [21]): 94.22%
- remaining activity at 1 µM (panel of 391 kinases [21]; [26]): 94.5%
- % Enzyme Activity (relative to DMSO controls) (panel of 391 kinases [22]): 91.85%
- remaining activity at 1 µM (panel of 391 kinases [22]; [26]): 93.6%
- % Enzyme Activity (relative to DMSO controls) (panel of 391 kinases [23]): 98.71%
- remaining activity at 1 µM (panel of 391 kinases [23]; [26]): 104%
- % Enzyme Activity (relative to DMSO controls) (panel of 391 kinases [24]): 93.00%
- remaining activity at 1 µM (panel of 391 kinases [24]; [26]): 96.5%
- % Enzyme Activity (relative to DMSO controls) (panel of 391 kinases [25]): 100.16%
- remaining activity at 1 µM (panel of 391 kinases [25]; [26]): 101%
